In series [1] the target is Mitogen-activated protein kinase 8 (Homo sapiens, UniProt P45983). The experiment in a line: Inhibition of JNK1 using biotinylated-ATF2 as substrate by HTRF assay.
Series [2] deals with Mitogen-activated protein kinase 10 (Homo sapiens, UniProt P53779). The experiment in a line: Inhibition of JNK3 using biotinylated-ATF2 as substrate by HTRF assay. (In TR-FRET formats the signal depends on donor and acceptor labels being close together.)
Series [3] in a line: Half life in Sprague-Dawley rat at 1 mg/kg, iv and 2 mg/kg, po. The class given is ADME, organism-based. Particulars: in vivo.
Series [4] is described as follows: Plasma clearance in Sprague-Dawley rat at 1 mg/kg, iv and 2 mg/kg, po. The class given is ADME, organism-based.
Series [5] in a line: AUC in Sprague-Dawley rat at 1 mg/kg, iv and 2 mg/kg, po. The class given is ADME, organism-based. Particulars: plasma.
Series [6] in a line: Oral bioavailability in Sprague-Dawley rat at 2 mg/kg. It counts as ADME, organism-based. Particulars: in vivo.
The nature of series [7]: Plasma concentration in C57B16 mouse at 10 mg/kg, ip after 2 hrs. The class given is ADME, organism-based. Set-up: dose 10 mg/kg, route intraperitoneal.
The nature of series [8]: Drug level in C57B16 mouse brain at 10 mg/kg, ip after 2 hrs. It counts as ADME, organism-based. Set-up: dose 10 mg/kg, route intraperitoneal. Particulars: read-out: Drug uptake.

Sequence of Mitogen-activated protein kinase 8 (P45983 whole entry): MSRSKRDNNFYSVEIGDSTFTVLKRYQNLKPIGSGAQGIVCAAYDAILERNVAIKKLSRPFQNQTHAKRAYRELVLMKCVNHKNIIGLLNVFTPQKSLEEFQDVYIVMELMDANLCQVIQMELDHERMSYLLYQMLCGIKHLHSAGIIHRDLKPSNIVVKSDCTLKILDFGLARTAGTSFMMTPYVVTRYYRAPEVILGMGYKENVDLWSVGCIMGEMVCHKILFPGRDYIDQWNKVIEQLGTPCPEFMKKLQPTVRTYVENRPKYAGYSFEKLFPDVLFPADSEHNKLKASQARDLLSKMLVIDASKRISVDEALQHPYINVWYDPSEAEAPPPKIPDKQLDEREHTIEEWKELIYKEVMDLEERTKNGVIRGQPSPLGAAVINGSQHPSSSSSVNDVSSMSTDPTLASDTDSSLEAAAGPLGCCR
Sequence of Mitogen-activated protein kinase 10 (P53779 whole entry): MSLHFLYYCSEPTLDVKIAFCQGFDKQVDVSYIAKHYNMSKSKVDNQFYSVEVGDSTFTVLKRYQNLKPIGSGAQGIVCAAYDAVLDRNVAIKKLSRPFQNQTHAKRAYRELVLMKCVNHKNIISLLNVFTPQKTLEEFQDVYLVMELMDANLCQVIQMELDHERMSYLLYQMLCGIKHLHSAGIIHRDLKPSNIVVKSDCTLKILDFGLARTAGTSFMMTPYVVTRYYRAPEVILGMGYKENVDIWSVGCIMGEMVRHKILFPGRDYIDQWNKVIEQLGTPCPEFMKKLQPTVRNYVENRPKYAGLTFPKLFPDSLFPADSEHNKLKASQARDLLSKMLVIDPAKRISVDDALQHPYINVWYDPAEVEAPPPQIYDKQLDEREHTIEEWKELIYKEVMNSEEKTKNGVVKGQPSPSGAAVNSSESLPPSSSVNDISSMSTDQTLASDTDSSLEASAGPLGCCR

One may read the IC50 as the concentration at which inhibition is half-maximal. A low value points to inhibition by little substance. In the case of `NC(=O)c1ccccc1Nc1cc(Oc2ccc(Cl)c(Cl)c2)ncc1C(F)(F)F`, the results for the IC50 in series [1] and in series [2] were 680 nM and 100 nM, respectively.
On to `NC(=O)c1ccccc1Nc1ccnc(Oc2ccccc2)c1`, for which the IC50 in series [1] was found to be 330 nM; in series [2] it was 520 nM.
As a reminder, the half-life is the time in which the quantity being followed falls by half. As a reminder, the AUC is the area under the concentration-time curve, a measure of exposure. Lower therefore signals low exposure. In general, bioavailability refers to dose-corrected exposure relative to a reference, in per cent. Higher therefore signals good availability. For `NC(=O)c1ccccc1Nc1ccnc(Oc2ccc(N3CCNCC3)cc2)c1`, the IC50 in series [1] was determined as 310 nM; in series [2], 70 nM. Also, the half-life in series [3] is 1.5 h. In series [4], this compound gave a clearance of 38 mL/min/kg. The same compound displayed an AUC in series [5] of 0.3 µM·h. Moreover, in series [6], the bioavailability worked out at 14%.
On to `COc1ccc(Oc2cc(Nc3ccccc3C(N)=O)c(F)cn2)cc1`, for which the IC50 in series [1] was 26 nM; in series [2], 48 nM.
Consider `COc1ccc(Oc2cc(Nc3ccccc3C(N)=O)c(Cl)cn2)cc1`, for which the IC50 in series [1] amounted to 8 nM; in series [2], 15 nM. The compound also had a half-life in series [3] of 1 h. In series [4], this compound came in with a clearance of 13 mL/min/kg. This compound also came in with an AUC in series [5] of 6.3 µM·h. In addition, the bioavailability in series [6] stood at 90%. Further, the figures for the concentration at 2 h in series [7] and in series [8] were 2.4 µM and 1.8 µM, respectively.
In the case of `COc1ccc(Oc2cc(Nc3ccccc3C(N)=O)c(C(F)(F)F)cn2)cc1`, the IC50 in series [1] was found to be 27 nM; in series [2], 37 nM. In series [3], this compound showed a half-life of 1 h. For the same compound, the clearance in series [4] stood at 3 mL/min/kg. This compound also returned an AUC in series [5] of 20.1 µM·h. The compound also showed a bioavailability in series [6] of 79%. Also, the concentration at 2 h in series [7] turned out to be 10 µM; in series [8] it was 5.2 µM.
Turning to `COc1cccc(Oc2cc(Nc3ccccc3C(N)=O)c(C(F)(F)F)cn2)c1`, the figures for the IC50 in series [1] and in series [2] were 38 nM and 70 nM, respectively.
For the compound `COc1ccccc1Oc1cc(Nc2ccccc2C(N)=O)c(C(F)(F)F)cn1`, the IC50 was determined as 3200 nM in series [1] and 3500 nM in series [2].
Taken in the same sequence, the figures for `NC(=O)c1ccccc1Nc1cc(Oc2ccc(OC(F)(F)F)cc2)ncc1C(F)(F)F` were 35 nM and 35 nM.
The corresponding values for `CCOc1ccc(Oc2cc(Nc3ccccc3C(N)=O)c(C(F)(F)F)cn2)cc1` are 35 nM and 110 nM.
Taken in the same sequence, the figures for `CCCOc1ccc(Oc2cc(Nc3ccccc3C(N)=O)c(C(F)(F)F)cn2)cc1` were 100 nM and 140 nM.
In the case of `CC(C)(C)Oc1ccc(Oc2cc(Nc3ccccc3C(N)=O)c(C(F)(F)F)cn2)cc1`, the IC50 amounted to 22 nM in series [1] and 27 nM in series [2].
As for `NC(=O)c1ccccc1Nc1cc(Oc2ccc(F)cc2)ncc1C(F)(F)F`, the IC50 was 100 nM in series [1] and 200 nM in series [2].
The corresponding values for `NC(=O)c1ccccc1Nc1cc(Oc2ccc(Br)cc2)ncc1C(F)(F)F` are 480 nM and 380 nM.
In the case of `NC(=O)c1ccccc1Nc1cc(Oc2cccc(Cl)c2)ncc1C(F)(F)F`, in series [2], the IC50 is 200 nM.
As to `COc1ccc(Oc2cc(Nc3ccccc3C(N)=O)c(C(F)(F)F)cn2)c(Cl)c1`, the IC50 in series [1] amounted to 740 nM; in series [2], 100 nM.
Taken in the same sequence, the figures for `NC(=O)c1ccccc1Nc1cc(Oc2cccc3ccccc23)ncc1C(F)(F)F` were 650 nM and 990 nM.
Consider `NC(=O)c1ccccc1Nc1cc(Oc2ccc3ccccc3c2)ncc1C(F)(F)F`, for which the IC50 in series [2] came to 320 nM.
As to `NC(=O)c1ccccc1Nc1cc(Oc2ccc3c(c2)OCO3)ncc1C(F)(F)F`, the IC50 in series [1] is 44 nM; in series [2], 48 nM.
`NC(=O)c1ccccc1Nc1cc(Oc2ccc(-n3cncn3)cc2)ncc1C(F)(F)F`: the IC50 in series [2] came to 80 nM. The compound further gave a half-life in series [3] of 1 h. Moreover, the clearance in series [4] stood at 6 mL/min/kg. This compound also displayed an AUC in series [5] of 9.1 µM·h. The bioavailability in series [6] was 73%. Also, the concentration at 2 h stood at 15.7 µM in series [7] and 2.5 µM in series [8].
The compound `NC(=O)c1ccccc1Nc1cc(Oc2ccc(N3CCNCC3)cc2)ncc1C(F)(F)F` registered an IC50 in series [2] of 34 nM.
With `NC(=O)c1ccccc1Nc1cc(Oc2ccc(-c3cccnc3)cc2)ncc1C(F)(F)F`, the IC50 in series [1] is 53 nM; in series [2], 72 nM.
As to `COc1ccc(Oc2cc(Nc3cccc(Cl)c3C(N)=O)c(C(F)(F)F)cn2)cc1`, it took 2200 nM to reach half-maximal inhibition in series [2] (IC50).
On the same count and under the same terms, then `COc1ccc(Oc2cc(Nc3cccc(OC)c3C(N)=O)c(C(F)(F)F)cn2)cc1`, with 2200 nM; and `COc1ccc(Oc2cc(Nc3ccc(F)cc3C(N)=O)c(C(F)(F)F)cn2)cc1`, with 45 nM.
The same measure, in the same setting: under `COc1ccc(Oc2cc(Nc3ccc(Cl)cc3C(N)=O)c(C(F)(F)F)cn2)cc1` stands 30 nM; under `COc1ccc(Oc2cc(Nc3cc(F)ccc3C(N)=O)c(C(F)(F)F)cn2)cc1`, 49 nM.
The same measure, in the same setting: under `COc1ccc(Oc2cc(Nc3cc(Cl)ccc3C(N)=O)c(C(F)(F)F)cn2)cc1` stands 78 nM; under `COc1ccc(Oc2cc(Nc3cc(OC)ccc3C(N)=O)c(C(F)(F)F)cn2)cc1`, 17 nM; under `COc1ccc(Oc2cc(Nc3c(F)cccc3C(N)=O)c(C(F)(F)F)cn2)cc1`, 60 nM.
`COc1ccc(Oc2cc(Nc3c(Cl)cccc3C(N)=O)c(C(F)(F)F)cn2)cc1`: the IC50 in series [2] is 160 nM.
In series [1], `COc1ccc(Oc2cc(N(C)c3ccccc3C(N)=O)c(Cl)cn2)cc1` registered an IC50 greater than 20000 nM.
As for `CNC(=O)c1ccccc1Nc1cc(Oc2ccc(OC)cc2)ncc1Cl`, the IC50 in series [1] worked out at 930 nM; in series [2] it was 170 nM.
`COc1ccc(Oc2cc(Nc3ccccc3-c3nnc[nH]3)c(Cl)cn2)cc1`: the IC50 is 120 nM in series [1] and 140 nM in series [2].
As for `COc1ccc(Oc2ncc(Cl)c(Nc3ccccc3C(N)=O)n2)cc1`, the IC50 in series [1] turned out to be 4 nM; in series [2], 7 nM. In addition, the half-life in series [3] was 0.5 h. The same compound showed a clearance in series [4] of 22 mL/min/kg. This compound also returned an AUC in series [5] of 1 µM·h. For the same compound, in series [6], the bioavailability amounted to 25%.

The values above are taken from ChEMBL document CHEMBL1921763, “Synthesis and SAR of 2-phenoxypyridines as novel c-Jun N-terminal kinase inhibitors” (Bioorg Med Chem Lett, 2011).
